Data taken from publication PMC3382171 (PLoS ONE, 2012).

Legend:
Assay in all cases: biochemical
Set-up in all cases: University of Dundee kinase panel, percent inhibition of phosphorylation at 1 uM RAFi, ATP at Km
Details in all cases: read-out: Dundee KSS %inh at 1 uM
DYRK2 = biological target: T1, DYRK2 (Homo sapiens, UniProt Q92630)
T1 sequence (Q92630 1-601): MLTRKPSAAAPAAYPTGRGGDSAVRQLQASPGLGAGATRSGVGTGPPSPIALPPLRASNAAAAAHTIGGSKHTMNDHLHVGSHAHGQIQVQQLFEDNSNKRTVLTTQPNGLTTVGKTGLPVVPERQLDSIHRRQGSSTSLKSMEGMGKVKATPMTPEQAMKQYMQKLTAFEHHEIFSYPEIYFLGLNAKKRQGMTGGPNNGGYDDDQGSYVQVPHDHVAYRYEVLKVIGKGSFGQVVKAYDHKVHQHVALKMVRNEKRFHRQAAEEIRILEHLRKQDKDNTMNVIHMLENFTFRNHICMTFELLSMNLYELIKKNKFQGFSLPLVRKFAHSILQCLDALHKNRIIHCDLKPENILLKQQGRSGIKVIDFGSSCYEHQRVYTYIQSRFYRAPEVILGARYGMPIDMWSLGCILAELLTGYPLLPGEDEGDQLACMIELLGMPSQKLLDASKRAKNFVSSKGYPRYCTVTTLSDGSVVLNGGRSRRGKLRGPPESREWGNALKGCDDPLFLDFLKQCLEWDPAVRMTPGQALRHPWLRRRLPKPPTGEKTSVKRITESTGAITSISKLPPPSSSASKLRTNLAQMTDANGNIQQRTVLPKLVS
Experimental: (§1) The METi and RAFi were screened against kinase panels (SelectScreen, Invitrogen; University of Dundee, Division of Signal Transduction Therapy, UK; Upstate Biotechnology/Millipore, Billerica, MA). In these selectivity assays the concentration of ATP was set to the Km value of ATP for each kinase tested to allow for a relative potency comparison between the various kinases. The compounds were tested at 1 µM final concentration. […] Supplementary file pone.0039653.s002.pdf: Figure S2 Kinase Selectivity Screen of RAFi. (A) Kinase selectivity screen (KSS) performed at University of Dundee (Division of Signal Transduction Therapy). Values in % inhibition of phosphorylation given 1 µM of RAFi compared to control. (B) KSS performed at Invitrogen (Selectscreen Service) compared to control. Values in % inhibition of phosphorylation given 1 µM of RAFi. (C) Cell based dose response kinase inhibition of indicated kinases by RAFi. (PDF) Click here for additional data file.

rat ROCKII = biological target: T2, rat ROCKII (Rattus norvegicus, UniProt Q62868)
T2 construct: gene Rock2
Experimental: as §1

PRK2 = biological target: T3, PRK2 (Homo sapiens, UniProt Q16513)
T3 construct: gene PKN2
Experimental: as §1

rat AMPKa2 = biological target: T4, rat AMPKa2 (Rattus norvegicus, UniProt Q09137)
T4 construct: gene Prkaa2
Experimental: as §1

IKKb = biological target: T5, IKKb (Homo sapiens, UniProt O14920)
T5 construct: gene IKBKB
Experimental: as §1

rat RSK1 = biological target: T6, rat RSK1 (Rattus norvegicus, UniProt Q63531)
T6 construct: gene Rps6ka1
Experimental: as §1

MSK1 = biological target: T7, MSK1 (Homo sapiens, UniProt O75582)
T7 construct: gene RPS6KA5
Experimental: as §1

PBK = PBK (Homo sapiens, UniProt Q96KB5)
Experimental: as §1

SRPK1 = SRPK1 (Homo sapiens, UniProt Q96SB4)
Experimental: as §1

PIM1 = PIM1 (Homo sapiens, UniProt P11309)
Experimental: as §1

EEF-2 kinase = biological target: T8, EEF-2 kinase (Homo sapiens, UniProt O00418)
T8 construct: gene EEF2K
Experimental: as §1

P70S6K = biological target: T9, P70S6K (Homo sapiens, UniProt P23443)
T9 construct: gene RPS6KB1
Experimental: as §1

ERK7 = biological target: T10, ERK7 (Homo sapiens, UniProt Q8TD08)
T10 construct: gene MAPK15
Experimental: as §1

MLCK = biological target: T11, MLCK (Homo sapiens, UniProt Q15746)
T11 construct: gene MYLK
Experimental: as §1

CAMKKB = biological target: T12, CAMKKB (Homo sapiens, UniProt Q96RR4)
T12 construct: gene CAMKK2
Experimental: as §1

CDK2 = CDK2 (Homo sapiens, UniProt P24941)
Experimental: as §1

T8 sequence (O00418 whole entry): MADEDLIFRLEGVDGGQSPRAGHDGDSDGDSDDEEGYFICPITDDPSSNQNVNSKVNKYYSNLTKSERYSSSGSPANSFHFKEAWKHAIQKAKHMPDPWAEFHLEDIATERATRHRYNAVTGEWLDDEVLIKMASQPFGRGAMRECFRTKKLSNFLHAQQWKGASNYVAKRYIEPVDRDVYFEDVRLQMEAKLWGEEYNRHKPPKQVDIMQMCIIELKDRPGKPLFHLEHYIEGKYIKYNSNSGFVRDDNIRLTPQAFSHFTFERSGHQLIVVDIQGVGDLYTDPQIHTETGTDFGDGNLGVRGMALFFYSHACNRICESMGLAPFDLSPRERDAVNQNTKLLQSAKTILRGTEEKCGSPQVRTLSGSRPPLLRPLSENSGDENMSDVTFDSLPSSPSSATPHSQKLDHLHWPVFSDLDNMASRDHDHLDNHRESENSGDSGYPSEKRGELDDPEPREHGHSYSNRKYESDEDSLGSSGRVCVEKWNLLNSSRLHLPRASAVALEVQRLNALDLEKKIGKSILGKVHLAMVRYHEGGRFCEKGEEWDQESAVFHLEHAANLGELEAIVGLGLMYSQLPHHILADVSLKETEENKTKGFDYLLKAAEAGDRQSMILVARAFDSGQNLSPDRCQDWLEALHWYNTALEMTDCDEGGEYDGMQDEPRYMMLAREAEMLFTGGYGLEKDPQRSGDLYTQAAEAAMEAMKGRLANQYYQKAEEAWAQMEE
T12 sequence (Q96RR4 whole entry): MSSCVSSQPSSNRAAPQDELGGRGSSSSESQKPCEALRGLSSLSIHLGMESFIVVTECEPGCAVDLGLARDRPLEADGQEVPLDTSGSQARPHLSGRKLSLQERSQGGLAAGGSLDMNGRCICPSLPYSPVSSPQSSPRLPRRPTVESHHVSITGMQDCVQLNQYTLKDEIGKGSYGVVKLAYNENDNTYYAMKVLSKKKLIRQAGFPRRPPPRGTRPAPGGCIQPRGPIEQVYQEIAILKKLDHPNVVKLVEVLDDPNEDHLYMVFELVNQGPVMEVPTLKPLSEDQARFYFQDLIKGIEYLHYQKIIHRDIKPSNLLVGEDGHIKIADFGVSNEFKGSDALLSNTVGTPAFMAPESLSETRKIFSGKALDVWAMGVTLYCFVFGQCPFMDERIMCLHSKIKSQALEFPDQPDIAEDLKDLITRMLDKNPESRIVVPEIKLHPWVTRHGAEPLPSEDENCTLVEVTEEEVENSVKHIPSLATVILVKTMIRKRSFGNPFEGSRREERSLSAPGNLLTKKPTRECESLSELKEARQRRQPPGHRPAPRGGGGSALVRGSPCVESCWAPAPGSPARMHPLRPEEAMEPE
T6 sequence (Q63531 whole entry): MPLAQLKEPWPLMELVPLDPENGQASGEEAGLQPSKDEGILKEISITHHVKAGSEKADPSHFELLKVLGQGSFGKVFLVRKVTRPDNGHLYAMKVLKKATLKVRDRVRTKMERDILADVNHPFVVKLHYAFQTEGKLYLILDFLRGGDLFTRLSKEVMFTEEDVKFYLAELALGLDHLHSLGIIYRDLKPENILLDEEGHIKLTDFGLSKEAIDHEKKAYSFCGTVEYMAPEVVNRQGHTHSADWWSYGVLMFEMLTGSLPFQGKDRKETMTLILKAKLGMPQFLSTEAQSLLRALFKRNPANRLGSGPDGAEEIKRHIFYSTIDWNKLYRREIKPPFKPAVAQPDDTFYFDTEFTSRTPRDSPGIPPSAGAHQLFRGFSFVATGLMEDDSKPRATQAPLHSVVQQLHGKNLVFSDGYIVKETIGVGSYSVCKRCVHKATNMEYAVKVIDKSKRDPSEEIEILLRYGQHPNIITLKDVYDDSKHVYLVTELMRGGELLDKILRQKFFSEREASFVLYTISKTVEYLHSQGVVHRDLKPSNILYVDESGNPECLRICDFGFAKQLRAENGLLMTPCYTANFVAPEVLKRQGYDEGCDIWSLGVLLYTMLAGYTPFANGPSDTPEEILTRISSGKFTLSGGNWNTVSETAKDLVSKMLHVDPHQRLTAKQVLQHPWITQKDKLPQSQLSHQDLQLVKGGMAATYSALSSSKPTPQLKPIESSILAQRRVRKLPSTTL
T11 sequence (Q15746 whole entry): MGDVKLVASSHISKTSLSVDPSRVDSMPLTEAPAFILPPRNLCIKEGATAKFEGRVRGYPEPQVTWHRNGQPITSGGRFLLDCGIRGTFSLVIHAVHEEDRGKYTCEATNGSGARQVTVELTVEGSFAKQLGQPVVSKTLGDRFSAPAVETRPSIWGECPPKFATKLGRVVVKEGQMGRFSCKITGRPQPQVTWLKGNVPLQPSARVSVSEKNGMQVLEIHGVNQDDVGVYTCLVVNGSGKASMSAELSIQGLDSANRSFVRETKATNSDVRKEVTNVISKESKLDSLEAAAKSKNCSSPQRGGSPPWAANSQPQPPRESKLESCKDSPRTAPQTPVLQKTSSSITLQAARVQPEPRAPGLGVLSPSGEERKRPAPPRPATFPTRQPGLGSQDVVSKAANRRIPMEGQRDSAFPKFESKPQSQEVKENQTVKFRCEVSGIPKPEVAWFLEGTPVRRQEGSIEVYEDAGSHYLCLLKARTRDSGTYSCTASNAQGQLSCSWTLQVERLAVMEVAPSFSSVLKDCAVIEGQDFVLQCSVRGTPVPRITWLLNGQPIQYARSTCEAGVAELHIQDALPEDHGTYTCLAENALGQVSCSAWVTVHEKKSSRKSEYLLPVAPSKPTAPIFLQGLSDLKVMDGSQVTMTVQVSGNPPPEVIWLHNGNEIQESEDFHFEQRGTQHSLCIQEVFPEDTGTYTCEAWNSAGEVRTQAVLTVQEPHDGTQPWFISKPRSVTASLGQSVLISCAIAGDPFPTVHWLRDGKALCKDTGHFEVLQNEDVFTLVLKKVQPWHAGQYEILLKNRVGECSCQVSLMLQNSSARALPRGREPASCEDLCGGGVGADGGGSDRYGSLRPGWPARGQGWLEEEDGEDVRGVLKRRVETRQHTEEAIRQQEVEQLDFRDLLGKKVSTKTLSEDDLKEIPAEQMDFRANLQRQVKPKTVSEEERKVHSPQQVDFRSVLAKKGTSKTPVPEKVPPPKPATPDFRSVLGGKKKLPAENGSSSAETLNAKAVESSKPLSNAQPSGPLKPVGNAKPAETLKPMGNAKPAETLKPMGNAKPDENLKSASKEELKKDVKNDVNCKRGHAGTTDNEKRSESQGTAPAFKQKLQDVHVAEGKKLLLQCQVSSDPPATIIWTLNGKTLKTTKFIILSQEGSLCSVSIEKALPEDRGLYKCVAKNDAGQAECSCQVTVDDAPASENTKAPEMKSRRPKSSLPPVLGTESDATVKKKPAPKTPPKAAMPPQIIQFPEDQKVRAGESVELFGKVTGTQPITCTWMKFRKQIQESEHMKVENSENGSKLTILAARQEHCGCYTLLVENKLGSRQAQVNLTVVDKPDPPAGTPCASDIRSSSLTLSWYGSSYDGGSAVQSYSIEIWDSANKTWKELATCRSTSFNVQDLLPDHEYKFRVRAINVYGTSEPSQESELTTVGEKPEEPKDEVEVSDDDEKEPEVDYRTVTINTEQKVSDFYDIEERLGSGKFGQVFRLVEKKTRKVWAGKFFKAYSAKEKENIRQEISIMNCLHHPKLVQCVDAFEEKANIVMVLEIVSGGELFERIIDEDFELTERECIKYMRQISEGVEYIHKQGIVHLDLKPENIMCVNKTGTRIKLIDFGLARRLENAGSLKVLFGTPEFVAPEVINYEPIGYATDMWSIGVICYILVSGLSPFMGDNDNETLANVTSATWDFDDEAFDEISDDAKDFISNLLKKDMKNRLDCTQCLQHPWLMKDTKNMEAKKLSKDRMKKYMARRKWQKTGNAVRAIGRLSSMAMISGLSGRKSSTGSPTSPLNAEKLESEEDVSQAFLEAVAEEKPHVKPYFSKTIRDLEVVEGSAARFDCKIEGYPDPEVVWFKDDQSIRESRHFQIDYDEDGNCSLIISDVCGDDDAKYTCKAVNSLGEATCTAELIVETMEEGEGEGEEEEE
Sequence of PBK (Q96KB5 whole entry): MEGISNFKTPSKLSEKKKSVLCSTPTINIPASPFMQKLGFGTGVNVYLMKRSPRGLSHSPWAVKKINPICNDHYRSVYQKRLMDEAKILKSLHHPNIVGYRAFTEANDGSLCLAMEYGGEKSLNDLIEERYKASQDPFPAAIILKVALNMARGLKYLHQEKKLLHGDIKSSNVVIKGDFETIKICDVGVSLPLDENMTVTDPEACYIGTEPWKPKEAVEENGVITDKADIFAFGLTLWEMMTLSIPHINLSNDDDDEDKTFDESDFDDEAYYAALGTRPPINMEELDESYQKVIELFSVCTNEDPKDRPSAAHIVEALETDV
T5 sequence (O14920 whole entry): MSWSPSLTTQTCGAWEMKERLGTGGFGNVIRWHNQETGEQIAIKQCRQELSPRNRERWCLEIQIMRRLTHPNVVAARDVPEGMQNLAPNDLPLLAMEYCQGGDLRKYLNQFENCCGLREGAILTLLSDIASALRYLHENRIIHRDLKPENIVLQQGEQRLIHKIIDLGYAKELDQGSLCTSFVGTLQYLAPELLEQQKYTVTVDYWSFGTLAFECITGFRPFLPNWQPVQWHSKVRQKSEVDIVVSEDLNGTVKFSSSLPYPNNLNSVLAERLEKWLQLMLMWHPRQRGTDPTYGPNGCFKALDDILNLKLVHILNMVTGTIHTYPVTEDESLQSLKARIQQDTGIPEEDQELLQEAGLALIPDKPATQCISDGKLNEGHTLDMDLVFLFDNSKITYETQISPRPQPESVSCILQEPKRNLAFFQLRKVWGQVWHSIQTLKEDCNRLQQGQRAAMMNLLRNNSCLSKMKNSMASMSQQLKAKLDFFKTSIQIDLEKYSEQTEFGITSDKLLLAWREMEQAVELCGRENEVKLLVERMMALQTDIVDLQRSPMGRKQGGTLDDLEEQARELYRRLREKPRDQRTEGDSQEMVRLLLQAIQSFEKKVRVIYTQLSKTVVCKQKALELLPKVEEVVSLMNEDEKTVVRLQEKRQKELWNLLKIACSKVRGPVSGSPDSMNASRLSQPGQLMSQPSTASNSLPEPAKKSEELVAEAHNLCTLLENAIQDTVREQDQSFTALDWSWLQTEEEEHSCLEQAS

## N#CCCNc1nccc(-c2cn(CC(F)F)nc2-c2cnc3[nH]ccc3c2)n1 [RAFi, PF-04880594]
DYRK2
  inhibition at 1 µM: 23%
Rat ROCKII
  inhibition at 1 µM: 25%
PRK2
  inhibition at 1 µM: 16%
Rat AMPKa2
  inhibition at 1 µM: 15%
IKKb
  inhibition at 1 µM: 4%
Rat RSK1
  inhibition at 1 µM: 29%
MSK1
  inhibition at 1 µM: 14%
PBK
  inhibition at 1 µM: -2%
SRPK1
  inhibition at 1 µM: 5%
PIM1
  inhibition at 1 µM: 4%
EEF-2 kinase
  inhibition at 1 µM: 0%
P70S6K
  inhibition at 1 µM: -5%
ERK7
  inhibition at 1 µM: 16%
MLCK
  inhibition at 1 µM: 22%
CAMKKB
  inhibition at 1 µM: 16%
CDK2
  inhibition at 1 µM: 38%
